Where “and” joins values, the source holds several entries; their conditions need not be identical. Equal entries are not always repeated.
Key:
Vasopressin V2 = Vasopressin V2 (Rattus norvegicus, UniProt Q00788); assay: Vasopressin V2 agonist effects in normal conscious water-loaded rats; type: in vivo; parameters: from tissue; host or cells: whole living Sprague-Dawley rat; the receptor is the animal's own (renal, by own knowledge); conditions: Sprague-Dawley (CD) rats, 10 mg/kg oral; for Osmolality (% Increase): change in osmolality as percent of control; for Urine Volume (% decrease): vs. control, urine collected four hours
From the text: Vasopressin V2 Agonist Effects of Test Compounds in Normal Conscious Water-loaded Rats
Male or female normotensive Sprague-Dawley rats (Charles River Laboratories, Inc., Kingston, N.Y.) of 350-500 g body weight were supplied with standard rodent diet (Purina Rodent Lab. Chow 5001) and water ad libitum. On the day of test, rats were placed individually into metabolic cages equipped with devices to separate the feces from the urine and containers for collection of urine. […] The vehicle used was 20% dimethylsulfoxide (DMSO) in 2.5% preboiled corn starch. Thirty minutes after dosing the test compound, rats were gavaged with water at 30 ml/kg into the stomach using a feeding needle. During the test, rats were not provided with water or food. Urine was collected for four hours after dosing of the test compound. At the end of four hours, urine volume was measured. Urinary osmolality was determined using a Fiske One-Ten Osmometer (Fiske Associates, Norwood, Mass., 02062) or an Advanced CRYOMATIC Osmometer, Model 3C.2 (Advanced Instruments, Norwood, Mass.). Determinations of Na^+, K^+ and Cl^− ion were carried out using ion specific electrodes in a Beckman SYNCHRON EL-ISE Electrolyte System analyzer. The urinary osmolality should increase proportionally. In the screening test, two rats were used for each compound. If the difference in the urine volume of the two rats was greater than 50%, a third rat was used.

Sequence of Vasopressin V2 (Q00788 whole entry): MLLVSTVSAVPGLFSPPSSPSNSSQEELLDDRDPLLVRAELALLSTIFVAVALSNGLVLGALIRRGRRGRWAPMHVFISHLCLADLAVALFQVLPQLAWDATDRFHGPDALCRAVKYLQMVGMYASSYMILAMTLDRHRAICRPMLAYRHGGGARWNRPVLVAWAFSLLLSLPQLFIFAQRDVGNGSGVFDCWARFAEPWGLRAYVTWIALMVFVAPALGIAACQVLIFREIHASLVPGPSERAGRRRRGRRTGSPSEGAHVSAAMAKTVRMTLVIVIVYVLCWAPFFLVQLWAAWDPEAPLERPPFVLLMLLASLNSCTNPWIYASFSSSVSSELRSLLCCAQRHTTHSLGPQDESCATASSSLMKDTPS

Molecule | melting point | Osmolality (% Increase) (Vasopressin V2) | Urine Volume (% decrease) (Vasopressin V2)
Cc1ccn(-c2ccc(C(=O)N3Cc4cccn4Cc4ccccc43)c(Cl)c2)n1 (single isomer, unassigned) [Example 9A] | 137 to 138 °C and 141 to 143 °C | 325% | 70%
Cc1ccn(-c2ccc(C(=O)N3Cc4ccc(C)n4Cc4ccccc43)c(Cl)c2)n1 [Example 18, [2-Chloro-4-(3-methylpyrazol-1-yl)-phenyl]-(3-methyl-5H,11H-pyrrolo[2,1-c][1,4]benzodiazepin-10-yl)-methanone] | 178 to 180 °C | 214% | 52%
CCCC(=O)n1ccc(-c2ccc(C(=O)N3Cc4cccn4Cc4ccccc43)cc2)n1 [Example 33, 1-{3-[4-(5H,11H-Pyrrolo[2,1-c][1,4]benzodiazepine-10-carbonyl)-phenyl]-pyrazol-1-yl}-butan-1-one] | 105 to 110 °C | 362% | 68%
O=C(c1ccc(-c2ccn(C(=O)c3ccc(F)cc3Cl)n2)cc1)N1Cc2cccn2Cc2ccccc21 [Example 37, {4-[1-(2-Chloro-4-fluoro-benzoyl)-1H-pyrazol-3-yl]-phenyl}-(5H,11H-pyrrolo[2,1-c][1,4]benzodiazepin-10-yl}methanone] | 150 to 157 °C | 370% | 71%
O=C(c1ccc(-c2ncn[nH]2)cc1)N1Cc2cccn2Cc2ccccc21 [Example 48, (5H,11H-Pyrrolo[2,1-c][1,4]benzodiazepin-10-yl)-[4-(2H-[1,2,4]triazol-3-yl)-phenyl]-methanone] | 225 to 227 °C | – | –
Cc1n[nH]c(-c2ccc(C(=O)N3Cc4cccn4Cc4ccccc43)cc2)n1 [Example 50, [4-(5-Methyl-2H-[1,2,4]triazol-3-yl)-phenyl]-(5H,11H-pyrrolo[2,1-c][1,4]-benzodiazepin-10-yl)-methanone] | – | 223% | 53%
Cc1nc(-c2ccc(C(=O)N3Cc4cccn4Cc4ccccc43)cc2)n(C)n1 [Example 51, [4-(2,5-Dimethyl-2H-[1,2,4]triazol-3-yl)-phenyl]-(5H,11H-pyrrolo[2,1-c]-[1,4]benzodiazepin-10-yl)-methanone] | 193 to 195 °C | – | 72%
Cc1noc(-c2ccc(C(=O)N3Cc4cccn4Cc4ccccc43)cc2)n1 [Example 52, [4-(3-Methyl[1,2,4]oxadiazol-5-yl)-phenyl]-(5H,11H-pyrrolo-[2,1-c][1,4]-benzodiazepin-10-yl)-methanone] | 177 to 179 °C | 261% | 66%
O=C(c1ccc(-n2cccn2)cc1)N1Cc2cccn2Cc2ccccc21 [Example 58, [4-(Pyrazol-1-yl)-phenyl]-(5H,11H-pyrrolo[2,1-c][1,4]benzodiazepin-10-yl)-methanone] | – | 324% | 49%
Cc1ccn(-c2ccc(C(=O)N3Cc4cccn4Cc4ccccc43)cc2)n1 [Example 59, [4-(3-Methyl-pyrazol-1-yl)-phenyl]-(5H,11H-pyrrolo[2,1-c][1,4]-benzodiazepin-10-yl)-methanone] | – | 607% | 80%
Cc1cc(C)n(-c2ccc(C(=O)N3Cc4cccn4Cc4ccccc43)cc2)n1 [Example 61, [4-(3,5-Dimethyl-pyrazol-1-yl)-phenyl]-(5H,11H-pyrrolo[2,1-c][1,4]-benzodiazepin-10-yl)-methanone] | – | 245% | 59%
O=C(c1ccc(-n2ccnc2)cc1)N1Cc2cccn2Cc2ccccc21 [Example 63, [4-(Imidazol-1-yl)-phenyl]-(5H,11H-pyrrolo[2,1-c][1,4]benzodiazepin-10-yl)-methanone] | 171 to 172 °C | – | –
N#Cc1ccc(C(=O)N2Cc3cccn3Cc3ccccc32)c(Cl)c1 [Example 77, 3-Chloro-4-(5H,11H-pyrrolo[2,1-c][1,4]benzodiazepine-10-carbonyl)-benzonitrile] | – | 90% | 13%
Cc1n[nH]c(-c2ccc(C(=O)N3Cc4cccn4Cc4ccccc43)c(Cl)c2)n1 [Example 81, [2-Choro-4-(5-methyl-2H-[1,2,4]triazol-3-yl)phenyl]-(5H,11H-pyrrolo[2,1-c][1,4]benzodiazepine-10-carbonyl)-methanone] | – | 490% | 82%
Cc1nc(-c2ccc(C(=O)N3Cc4cccn4Cc4ccccc43)c(Cl)c2)n(C)n1 [Example 85, 4-[(2,5-Dimethyl-2H-[1,2,4]triazol-3-yl)-2-chloro-phenyl]-(5H,11H-pyrrolo[2,1-c][1,4]benzodiazepin-10-carbonyl)-methanone] | – | 436% | 76%
Cc1ccn(-c2ccc(C(=O)N3Cc4cccn4Cc4ccccc43)c(Br)c2)n1 [Example 90] | – | 413% | 61%
O=C(c1ccc(F)cc1F)N1Cc2cccn2Cc2ccccc21 [Example 91, (2,4-Difluoro-phenyl)-(5H,11H-pyrrolo[2,1-c][1,4]benzodiazepin-10-yl)-methanone] | – | 69% | 22%
Cc1ccn(-c2ccc(C(=O)N3Cc4ccnn4Cc4ccccc43)c(C(F)(F)F)c2)n1 [Example 95, [4-(3-Methylpyrazol-1-yl)-2-trifluoromethylphenyl]-(5H,11H-pyrazolo[5,1-c]-[1,4]benzodiazepin-10-yl)-methanone] | – | 300% | 68%
Cc1ncn(-c2ccc(C(=O)N3Cc4cccn4Cc4ccccc43)c(Cl)c2)n1 [Example 102, [2-Chloro-4-(3-methyl-1,2,4-triazol-1-yl)-phenyl](5H,11H-pyrrolo[2,1-c]-[1,4]benzodiazepin-10-yl)-methanone] | 191 to 193 °C | – | –
Cc1ncn(-c2ccc(C(=O)N3Cc4cccn4Cc4ccccc43)c(C(F)(F)F)c2)n1 [Example 103, [4-(3-Methyl-1,2,4-triazol-1yl)-2-trifluoromethyl-phenyl](5H,11H-pyrrolo[2,1-c][1,4]benzodiazepin-10-yl)-methanone] | 148 to 150 °C | – | –
COc1cc(-n2ccc(C)n2)ccc1C(=O)N1Cc2cccn2Cc2ccccc21 [Example 107, [2-Methoxy-4-(3-methyl-pyrazol-1-yl)-phenyl](5H,11H-pyrrolo[2,1-c][1,4]-benzodiazepin-10-yl) Methanone] | – | 125% | 31%
COc1cc(-n2ccc(C)n2)ccc1C(=O)N1Cc2ccc(CN(C)C)n2Cc2ccccc21 [Example 108, (3-Dimethylaminomethyl-5H,11H-pyrrolo[2,1-c][1,4]benzodiazepin-10-yl)[2-methoxy-4-(3-methyl-pyrazol-1-yl)-phenyl]-methanone] | – | 145% | 30%
Cc1ccn(-c2ccc(C(=O)N3Cc4cccn4Cc4ccccc43)c(O)c2)n1 [Example 109] | – | 95% | 21%
Cn1cc(-c2ccc(C(=O)N3Cc4cccn4Cc4ccccc43)c(Cl)c2)cn1 [Example 115, [2-Chloro-4-(1-methyl-1H-pyrazol-4-yl)phenyl) (5H,11H-pyrrolo[2,1-c][1,4]-benzodiazepin-10-yl)-methanone] | – | 229% | 66%
Cc1ccn(-c2ccc(C(=O)N3Cc4ccnn4Cc4ccccc43)c(Cl)c2)n1 [Example 116, [2-Chloro-4-(3-methyl-pyrazol-1-yl)-phenyl]-(4H,10H-pyrazolo[5,1-c][1,4]-benzodiazepin-5-yl)-methanone] | – | 256% | 66%
Cc1ccn(-c2ccc(C(=O)N3Cc4nnnn4Cc4ccccc43)c(Cl)c2)n1 [Example 117] | – | 311% | 68%
Cn1ccc(-c2ccc(C(=O)N3Cc4ccnn4Cc4ccccc43)cc2)n1 [Example 120A, [4-(1-Methyl-1H-pyrazol-3-yl)phenyl](4H,10H-pyrazolo[5,1c][1,4]-benzodiazepin-5-yl)methanone] | – | 269% | 66%
Cn1nccc1-c1ccc(C(=O)N2Cc3ccnn3Cc3ccccc32)cc1 [Example 120B, [4-(2-Methyl-1H-pyrazol-3-yl)phenyl](4H,1OH-pyrazolo[5,1c][1,4]-benzodiazepin-5-yl)methanone] | – | 272% | 67%
[2-Chloro-4-(2-methyl-2H-[1,2,4]triazol-3-yl)-phenyl]-(5H,11H-pyrrolo [2,1-c][1,4]benzodiazepin-10-carbonyl)-methanone [Example 84] | – | 291% | 56%
[2-Chloro-4-(3-methyl-4-ethynyl-phenyl) (5H,11H-pyrrolo[2,1-c][1,4]-benzodiazepin-10-yl)-methanone [Example 123] | – | 663% | 88%
